These results are taken from patent US6100254A, “Inhibitors of protein tyrosine kinases” (Board of Regents, The University of Texas System, priority 1997, dated 2000).

Where a name gives a salt, the structure may show the parent alone. *1 amine or outer side, *2 acyl side, *3 side chain or, on linkers, in order; H or OH if unused. Where a SMILES comes first, the peptide text is derived from it. Bridges are numbered along the chain shown (N, C = ends). Roman numbers before positions name the chains, in order. [ ]: non-standard residue; d: D form. Actinocin(9to1) = Cc1c2oc3c(C)ccc(C(=O)[*:1])c3nc-2c(C(=O)[*:2])c(N)c1=O; NMeV = CN[C@H](C(=O)O)C(C)C; Sar = CNCC(=O)O

For data set [1] the following is noted: cited from earlier work; for elimination half-life: intravenous.
For data set [2] the following is noted: cited from earlier work.
Data set [3] addresses Src. Conditions: Table 10, published peptides as inhibitors of Src; cited from earlier work.
Data set [4] relates to HT-29 colon adenocarcinoma cells. The data set is described as follows: Anchorage-independent growth, soft agar colony formation. The format is cell-based, human. Particulars: Homo sapiens, HT-29, 336 h, colonies ≥100 cells 14 days after plating. The protocol:
Soft agar colony formation is used to determine anchorage independent growth, an in vitro parameter which correlates well with tumorigenicity of HT 29 cells. (AFB-13 cells are unable to form soft agar colonies, a characteristic of normal cells). These assays are performed in 6 well ([…]) multiwell tissue culture dishes. The wells are underlayed with 1% low melting agarose in complete growth media, and refrigerated for 15 min. 1×10^3 HT 29 cells are then added to the wells in complete media in 0.5% low melting agarose. […] After a 24 h incubation period, 0.5 mL of media containing compound to be tested (or media alone as a control) is added to the dish. During the assay, media with or without the test compound is replenished every 3 days. Colonies estimated to contain >100 cells are counted after 14 days. For compounds that induce growth inhibition, the assay is continued to 28 days to assure that differences in colony forming ability were not due to altered growth rate of cells. For initial screening, assays are performed in duplicate for each compound to be tested, due to the large amount of inhibitor required for the length of the study.

Another data set addresses protein kinase A (PKA) (Homo sapiens, UniProt P17612). Nature of the data set: Enzyme panel: protein kinase A. It is filed as biochemical.
The target in the next data set is T1, Lck (p56^lck) (Mus musculus, UniProt P06240).
T1 construct: glutathione-S-transferase (GST) (N); made in house; host or cells: E. coli
T1 sequence (P06240 whole entry): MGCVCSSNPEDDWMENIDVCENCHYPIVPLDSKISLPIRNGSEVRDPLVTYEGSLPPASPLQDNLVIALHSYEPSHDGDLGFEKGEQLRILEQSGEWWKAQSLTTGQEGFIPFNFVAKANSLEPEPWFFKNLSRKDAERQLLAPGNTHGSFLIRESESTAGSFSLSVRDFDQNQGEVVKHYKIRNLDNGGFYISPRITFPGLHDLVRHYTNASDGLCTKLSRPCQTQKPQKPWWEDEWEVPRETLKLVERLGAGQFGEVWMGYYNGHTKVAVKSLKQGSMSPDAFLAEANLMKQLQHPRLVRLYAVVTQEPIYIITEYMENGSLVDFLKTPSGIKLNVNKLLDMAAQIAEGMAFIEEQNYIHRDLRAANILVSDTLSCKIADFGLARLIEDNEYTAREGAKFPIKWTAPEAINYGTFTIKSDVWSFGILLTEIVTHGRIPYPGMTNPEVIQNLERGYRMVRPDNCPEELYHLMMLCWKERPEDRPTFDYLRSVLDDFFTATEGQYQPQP
Nature of the data set: Lck tyrosine kinase activity, poly E4Y and 32P-ATP. It is filed as biochemical. An excerpt: (§1) The genes encoding Csk, Lck, Abl, and the FGF receptor have all been cloned. The genes encoding Csk, Abl, and the FGF receptor were cloned from humans, and the genes encoding Lck were cloned from a mouse. Recombinant Csk, Lck, Abl, and the FGFr were expressed as glutathione-S-transferase fusion proteins using the pGEX expression vector and E. coli, and purified as described (Sun et al., 1995).
(§2) Recombinant Src was expressed using the baculovirus-insect cell system and purified as published (Budde et al, 1993). Recombinant Csk, Lck, Abl, and the FGFr were expressed as glutathione-S-transferase fusion proteins using the pGEX expression vector and E. coli, and purified as described (Sun and Budde, 1995).
(§3) The tyrosine kinase activity of Src, Lck (p56^lck), Csk (C-Src kinase), Abl (Bcr-Abl catalytic domain), and the FGFr (fibroblast growth factor receptor catalytic domain), was determined using poly E4 Y and ^32 P-ATP.

Another data set addresses T2, Csk (C-Src kinase) (Homo sapiens, UniProt P41240).
T2 construct: glutathione-S-transferase (GST) (N); made in house; host or cells: E. coli
The data set is described as follows: Csk tyrosine kinase activity, poly E4Y and 32P-ATP. It is filed as biochemical.
From the text: as §1, §2, §3

For data set [5], the target named is FGFr (fibroblast growth factor receptor catalytic domain). Nature of the data set: FGFr tyrosine kinase activity, poly E4Y and 32P-ATP. The format is biochemical, human.
From the text: as §1, §2, §3

For data set [6], the system named is AFB-13 normal human fibroblasts. The data set is described as follows: Growth of AFB-13 cells, control for cellular toxicity. It is filed as cell-based. Particulars: Homo sapiens, Fibroblast, 120 h, viable cell count 5 days after plating. The protocol: (§4) For these assays 2×10^4 cells are plated in 24 well multiwell tissue culture dishes, in 1 ml of DME/F12 media supplemented with 5% fetal bovine serum. After 24 h, media is replaced with fresh media containing the concentration of inhibitor to be tested, or no inhibitor as a control. Cells are counted 1, 3, and 5 days subsequent to addition of inhibitor. For the day 5 counts, media with fresh inhibitor is used to replace spent media after day 3. […] For counting viable cells, cultures are trypsinized, stained with trypan blue, and cell number determined by counting under light microscopy with the use of a hemacytometer. Benzodiazepine derivatives were tested at their maximally soluble concentrations in 0.1% DMSO diluted with tissue culture medium, and serial dilutions were made thereof. Every concentration tested was performed in triplicate, in identical wells under identical assay conditions.

For data set [7], the target named is T3, Src (Homo sapiens, UniProt P12931).
T3 construct: made in house; host or cells: baculovirus-insect cell system
T3 sequence (P12931 whole entry, species assumed): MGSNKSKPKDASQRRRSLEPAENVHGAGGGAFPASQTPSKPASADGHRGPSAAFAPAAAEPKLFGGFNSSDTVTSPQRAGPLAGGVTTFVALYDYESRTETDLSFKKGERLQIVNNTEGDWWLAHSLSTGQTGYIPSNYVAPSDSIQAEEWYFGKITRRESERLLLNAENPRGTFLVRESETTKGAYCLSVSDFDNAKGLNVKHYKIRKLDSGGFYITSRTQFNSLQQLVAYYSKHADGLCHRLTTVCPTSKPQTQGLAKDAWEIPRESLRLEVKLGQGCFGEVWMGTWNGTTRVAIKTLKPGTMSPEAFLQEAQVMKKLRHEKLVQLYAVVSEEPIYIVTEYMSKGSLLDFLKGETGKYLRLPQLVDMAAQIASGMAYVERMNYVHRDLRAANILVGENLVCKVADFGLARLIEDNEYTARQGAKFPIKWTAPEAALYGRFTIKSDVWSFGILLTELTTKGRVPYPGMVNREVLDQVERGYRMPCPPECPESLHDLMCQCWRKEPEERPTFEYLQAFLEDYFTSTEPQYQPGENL
Nature of the data set: Src tyrosine kinase activity, poly E4Y and 32P-ATP. The format is biochemical. The protocol:
The compounds within the library were screened at a concentration of 100 μM using the following assay procedure. A 10 μL aliquot of poly(Glu:Tyr, 4:1) to final concentration of 200 μg/mL, 20 μL of benzodiazepine to be tested, 10 μL of purified Src and 10 μL of [gamma-^32 P]-ATP-MgCl2 cocktail (final concentration of 0.2 mM ATP; specific activity of 600 dpm/pmol, and 6 mM MgCl2) were mixed and incubated in 0.5 mL test tubes at ambient temperature. After 30 min, a 35 μL aliquot was spotted onto a 1×1 inch 3 MM filter paper and dropped into a 5% TCA bath at 60° C. The filter papers were washed 3 times with 5% TCA and air dried. The filter papers were then placed into a vial, 3 mL scintillation cocktail added, and analyzed by liquid scintillation counting.
as §3

For data set [8], the system named is HT-29 colon adenocarcinoma cells. The data set is described as follows: Growth of HT-29 cells, viable cell count. Particulars: viable cell count 5 days after plating. It is filed as cell-based, human. On the procedure:
as §4

The conditions of data set [9]: human, in vivo; cited from earlier work.
For data set [10] the following is noted: oral administration, multiple myeloma; cited from earlier work.
For data set [11] the following is noted: previously untreated chronic myelogenous leukemia; cited from earlier work.

T2 sequence (P41240 whole entry): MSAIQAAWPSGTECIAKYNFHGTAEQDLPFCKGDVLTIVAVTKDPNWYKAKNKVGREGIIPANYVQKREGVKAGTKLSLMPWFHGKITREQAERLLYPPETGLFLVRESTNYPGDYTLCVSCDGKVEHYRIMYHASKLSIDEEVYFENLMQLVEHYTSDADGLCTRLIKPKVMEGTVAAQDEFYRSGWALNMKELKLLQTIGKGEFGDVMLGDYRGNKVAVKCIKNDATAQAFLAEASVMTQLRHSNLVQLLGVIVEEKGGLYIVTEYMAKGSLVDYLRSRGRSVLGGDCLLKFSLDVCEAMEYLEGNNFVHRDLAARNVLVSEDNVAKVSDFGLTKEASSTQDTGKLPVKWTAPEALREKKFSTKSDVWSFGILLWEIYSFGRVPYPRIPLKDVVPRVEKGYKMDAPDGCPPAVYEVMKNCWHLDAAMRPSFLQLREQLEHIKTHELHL

In the case of `COc1cccc2c1C(=O)c1c(O)c3c(c(O)c1C2=O)C[C@@](O)(C(=O)CO)C[C@@H]3O[C@H]1C[C@H](N)[C@H](O)[C@H](C)O1` [Doxorubicin, 5,12-Naphthacenedione, (8s-cis)-10-[(3-amino-2,3,6-trideoxy-α-L-lyxo-hexopyranosyl)oxy]-7,8,9,10-tetrahydro-6,8,11-trihydroxy-8-(hydroxyacetyl)-1-methoxy-hydrochloride], in [1] (in vivo), the oral absorption entry is given as “absorbed poorly” and the “secreted into the bile” value was “Forty to 50”. The elimination half-life result in [1] is on record as “about 30 hr”.
`Cc1c2oc3c(C)ccc(C(=O)N[C@@H]4C(=O)N[C@H](C(C)C)C(=O)N5CCC[C@H]5C(=O)N(C)CC(=O)N(C)[C@@H](C(C)C)C(=O)O[C@@H]4C)c3nc-2c(C(=O)N[C@@H]2C(=O)N[C@H](C(C)C)C(=O)N3CCC[C@H]3C(=O)N(C)CC(=O)N(C)[C@@H](C(C)C)C(=O)O[C@@H]2C)c(N)c1=O` [Actinomycin D] (I: T[dV]P[Sar][NMeV] / II: T[dV]P[Sar][NMeV]; ester I:1-I:C, II:1-II:C; linker I:N-II:N via Actinocin(9to1)): in [1] (in vivo), the “dose excreted intact into the bile” value is “Half” and the “passage of the blood-brain barrier” value is “does not pass the blood-brain barrier”.
For `O=NN(CCCl)C(=O)NC1CCCCC1` [Lomustine, 1-(2-chloro-ethyl)-3-cyclohexyl-1 nitrosourea], the “radioactivity excreted as degradation products within 24 hours” value in data set [1] (oral radioactive drug, 30 mg/m^2 to 100 mg/m^2) is given as “about half”. Also, the “solubility in absolute alcohol” value in data set [2] (absolute alcohol) is reported as 70 mg per ml. For the same compound, the solubility in water in data set [2] (water) is given as under 0.05 mg per ml.
By Ki is commonly meant a measure of affinity in units of concentration, obtained from inhibition or displacement. On to EEIYGEFE, for which, at Src [3], the inhibitory constant (Ki) is 70 µM.
As for `O=C(O)CCCc1ccc(N(CCCl)CCCl)cc1` [Chlorambucil, 4-[bis(2-chlorethyl)amino]benzenebutanoic acid], the “terminal half-life of the parent drug” value in [1] (single oral doses of 0.6-[…]) is 1.5 h.
As to `COc1cccc2c1C(=O)c1c(O)c3c(c(O)c1C2=O)C[C@@](O)(C(C)=O)C[C@@H]3O[C@H]1C[C@H](N)[C@H](O)[C@H](C)O1` [Daunorubicin, 5,12-Naphthacenedione, (8S-cis)-8-acetyl-10-[(3-amino-2,3,6-trideoxy-α-L-lyxo-hexanopyranosyl)oxy]-7,8,9,10-tetrahydro-6,8,11-trihydroxy-10-methoxy-, hydrochloride], the oral absorption entry in data set [1] (in vivo) is “poor”. For the same compound, the elimination half-life entry in data set [1] is given as “about 19 hr”.
In the case of RRLIEDAEYAARG, the inhibitory constant (Ki) at Src [3] is 10000 µM.
Usually IC50 stands for the concentration that inhibits the measured activity by half. Low readings indicate inhibition by little substance, high ones a need for much substance. As to `O=C1[C@@H](Cc2ccc(O)cc2)N=C(c2ccc(O)cc2)c2cc(Cl)ccc2N1Cc1ccc(-c2ccccc2)cc1` [D-Tyr,BnzPh, 7-chloro-1,3-dihydro-1-(-4-biphenylmethyl)-3-(-4-hydroxyphenylmethyl)-5-(4-hydroxyphenyl)-(2H)1,4-benzodiazepin-2-one], the activity at 3 µM in data set [4] (3 μM) came out at 94%; in data set [6] (3 μM), 89 ± 6%; in data set [8] (Homo sapiens, HT-29, 120 h, 3 μM), 94 ± 9%. Moreover, the activity at 16 µM in [4] (16 μM) amounted to 90%; in data set [6] (16 μM), 100 ± 4%; in data set [8] (Homo sapiens, HT-29, 120 h, 16 μM) it was 74 ± 5%. Also, the results for the activity at 32 µM in data set [4] (32 μM) and in data set [6] (32 μM) were 100% and 100 ± 7%, respectively. Further, the IC50 against protein kinase A (PKA) was determined as 54 µM; against Lck (p56^lck), 640 µM; at Csk (C-Src kinase), 404 µM; in [5], 335 µM; at Src [7], 97 µM. Besides, on Src [7] (Table 10, benzodiazepines as inhibitors of Src), affinity was put at a Ki of 43 µM. Besides, the “HT-29 Growth” value in data set [8] (32 μM) is on record as “cytotoxic”.
Take RDRVYVHPF: on Src [3], the Ki was 2600 µM.
As for DRVYVHPF, at Src [3], the inhibitory constant (Ki) was 3100 µM.
As to YIYGSFK, the inhibition constant Ki on Src [3] is 1600 µM.
Take `CO[C@@]12[C@H](COC(N)=O)C3=C(C(=O)C(C)=C(N)C3=O)N1C[C@@H]1N[C@@H]12` [Mitomycin]: in data set [9], the “dose excreted unchanged in the urine” value is recorded as “Approximately 10%”.
With KKSRGDYMTMQIG, the Ki at Src [3] is 200 µM.
For EFEYAFF, the Ki at Src [3] is 130 µM.
As for `N.N.[Cl][Pt][Cl]` [Cisplatin], the oral absorption result in data set [1] (in vivo) is “not absorbed orally”.
Turning to “4-[bis(2-chloroethyl)amino]-L-phenylalanine [Melphalan]”, the “patients showing a favorable response” value in data set [10] is recorded as “one third to one half”.
Consider `CS(=O)(=O)OCCCCOS(C)(=O)=O` [Busulfan, 1,4-butanediol dimethanesulfonate], for which the “adults obtaining hematologic remission” value in data set [11] is “Approximately 90%”.
